These results are taken from US10077247B2, “Tricyclic spiro compound” (ONO PHARMACEUTICAL CO., LTD., priority 2015, dated 2018).

A short description of data set [1]: Pharmacokinetics test (hepatic microsome stability test). The note with it: human hepatic microsome 1 mg/mL, 37° C., 60 min, 1 μmol/L.
Another data set has as its target rat EP4 receptor (Rattus norvegicus (Rat), UniProt P43114). As to the kind of experiment: EP4 antagonistic activity measurement using prostanoid receptor subtype expressing cells (cAMP). In kind it is cell-based. The note with it: CHO cells expressing rat EP4 receptor; inhibition of cAMP production by PGE2 10 nM.
Data set [2] has as its system mouse colorectal cancer cell line CT26. The data set can be described thus: Anti-tumor effect in allograft model of mouse colorectal cancer cell line CT26. Format: in vivo. The following applies: 10 mg/kg orally, twice a day, Balb/C mouse, 21 days from transplant. The procedure:
The anti-tumor effect of the present compound was evaluated in an allograft model of the mouse colorectal cancer cell line CT26. CT26 was cultured in a CO2 incubator, using an RPMI-1640 medium containing 10 vol % inactivated fetal bovine serum (FBS), 100 units/mL of penicillin, and 100 µg/mL of streptomycin. On the day of transplant, CT26 was harvested after removing the culture supernatant, and washing the cells with phosphate buffer (hereinafter, “PBS”). The harvested CT26 cells were suspended in Hank's buffer to obtain transplant cells. The transplant cells (3×10^5) were then subcutaneously transplanted to the right back of a female Balb/C mouse (Charles River Laboratories Japan Inc.) under anesthesia. The present compound was orally administered in a dose of 10 mg/kg, once on the day of transplant, and twice a day from the next day. For the control group, distilled water was administered for the same duration as in the present compound-administered group. The tumor volume (mm^3) was determined by calculating a relative tumor volume from the measured tumor lengths along the minor axis and major axis using a digital caliper, according to the following formulae 1 and 2. Tumor volume=[(minor axis)^2×major axis]/2 Relative tumor volume=medium value of tumor volumes of each group after 21 days from transplant/medium value of tumor volume of control group after 21 days from transplant

rat EP4 receptor, sequence (P43114 whole entry): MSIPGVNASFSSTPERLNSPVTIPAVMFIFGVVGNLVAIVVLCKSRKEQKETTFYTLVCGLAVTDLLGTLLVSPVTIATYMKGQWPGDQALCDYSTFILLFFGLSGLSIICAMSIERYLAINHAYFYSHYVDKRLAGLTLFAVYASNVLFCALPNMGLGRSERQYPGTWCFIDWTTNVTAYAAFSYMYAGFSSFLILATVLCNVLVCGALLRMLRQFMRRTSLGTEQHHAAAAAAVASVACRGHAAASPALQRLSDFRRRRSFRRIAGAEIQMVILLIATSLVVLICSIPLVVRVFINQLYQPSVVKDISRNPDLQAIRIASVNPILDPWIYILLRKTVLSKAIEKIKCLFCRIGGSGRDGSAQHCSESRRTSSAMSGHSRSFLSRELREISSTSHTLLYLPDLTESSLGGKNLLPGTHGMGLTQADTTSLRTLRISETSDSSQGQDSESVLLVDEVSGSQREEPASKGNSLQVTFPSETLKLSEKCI

Take `COCCNC(=O)c1ccc2c(c1)[C@]1(CCO2)C[C@H]1C(=O)Nc1cc(C#N)ccc1CCCC(=O)O` [Example 2-2, 4-{4-Cyano-2-[({(2′R,4S)-6-[(2-methoxyethyl)carbamoyl]-2,3-dihydrospiro[chromene-4,1′-cyclopropan]-2′-yl}carbonyl)amino]phenyl}butanoic acid]: the “Remaining rate (%)” value in data set [1] is 97%. The same compound displayed a 50% inhibitory concentration (IC50) against rat EP4 receptor of 5.3 nM. Also, the “tumor growth inhibitory effect (relative tumor volume, FIG. 1)” value in data set [2] is “tumor growth inhibitory effect”.

With `CC(C)NC(=O)c1ccc2c(c1)[C@]1(CCO2)C[C@H]1C(=O)Nc1cc(C#N)ccc1CCCC(=O)O` [Example 2-13, 4-[4-Cyano-2-({[(2′R,4S)-6-(isopropylcarbamoyl)-2,3-dihydrospiro[chromene-4,1′-cyclopropan]-2′-yl]carbonyl}amino)phenyl]butanoic acid], the “Remaining rate (%)” value in data set [1] is given as 100%. The same compound had an IC50 against rat EP4 receptor of 7.8 nM. For the same compound, the “tumor growth inhibitory effect (relative tumor volume, FIG. 1)” value in data set [2] was “tumor growth inhibitory effect”.

In the case of `CNC(=O)c1ccc2c(c1)[C@]1(CC2)C[C@H]1C(=O)Nc1cc(C#N)ccc1CCCC(=O)O` [Example 18-1, 4-[4-Cyano-2-({[(1R,2R)-6′-(methylcarbamoyl)-2′,3′-dihydrospiro[cyclopropane-1, 1′-inden]-2-yl]carbonyl}amino)phenyl]butanoic acid], in data set [1], the “Remaining rate (%)” value amounted to 90%. Half-maximal inhibition on rat EP4 receptor (IC50) required 1.2 nM.

Turning to `COCCNC(=O)c1ccc2c(c1)[C@]1(CC2)C[C@H]1C(=O)Nc1cc(C#N)ccc1CCCC(=O)O` [Example 18-2, 4-{4-Cyano-2-[({(1R,2R)-6′-[(2-methoxyethyl)carbamoyl]-2′,3′-dihydrospiro[cyclopropane-1,1′-inden]-2-yl}carbonyl)amino]phenyl}butanoic acid], the “Remaining rate (%)” value in data set [1] turned out to be 100%. The same compound returned an IC50 on rat EP4 receptor of 3 nM.

Regarding `Cn1cc(NC(=O)c2ccc3c(c2)[C@]2(CC3)C[C@H]2C(=O)Nc2cc(C#N)ccc2CCCC(=O)O)cn1` [Example 18-3, 4-{4-Cyano-2-[({(1R,2R)-6′-[(1-methyl-1H-pyrazol-4-yl)carbamoyl]-2′,3′-dihydrospiro[cyclopropane-1,1′-inden]-2-yl}carbonyl)amino]phenyl}butanoic acid], the “Remaining rate (%)” value in data set [1] stood at 91%. Also, the IC50 against rat EP4 receptor was determined as 2.7 nM.

For `CNC(=O)c1cc2c(cc1F)OCC[C@]21C[C@H]1C(=O)Nc1cc(C#N)ccc1CCCC(=O)O` [Example 20-1], the “Remaining rate (%)” value in data set [1] is given as 88%. Besides, at rat EP4 receptor, half-maximal inhibition (IC50) was put at 8.5 nM.

Consider `COCCNC(=O)c1cc2c(cc1F)OCC[C@]21C[C@H]1C(=O)Nc1cc(C#N)ccc1CCCC(=O)O` [Example 20-2, 4-{4-Cyano-2-[({(2′R,4S)-7-fluoro-6-[(2-methoxyethyl)carbamoyl]-2,3-dihydrospiro[chromene-4,1′-cyclopropan]-2′-yl}carbonyl)amino]phenyl}butanoic acid], for which the “Remaining rate (%)” value in data set [1] came out at 77%. Besides, the IC50 against rat EP4 receptor came to 1.6 nM.

In the case of `CC(C)NC(=O)c1cc2c(cc1F)OCC[C@]21C[C@H]1C(=O)Nc1cc(C#N)ccc1CCCC(=O)O` [Example 20-5, 4-[4-Cyano-2-({[(2′R,4S)-7-fluoro-6-(isopropylcarbamoyl)-2,3-dihydrospiro[chromene-4, 1′-cyclopropan]-2′-yl]carbonyl}amino)phenyl]butanoic acid], the “Remaining rate (%)” value in data set [1] is listed as 100%. The same compound displayed a concentration for half-maximal inhibition (IC50) at rat EP4 receptor of 9.5 nM.

With `CNC(=O)c1ccc2c(c1)OCC[C@]21C[C@H]1C(=O)Nc1cc(C#N)ccc1CCCC(=O)O` [Example 28-1, 4-[4-Cyano-2-({[(2′R,4S)-7-(methylcarbamoyl)-2,3-dihydrospiro[chromene-4,1′-cyclopropan]-2′-yl]carbonyl}amino)phenyl]butanoic acid], the “Remaining rate (%)” value in data set [1] was found to be 91%. The IC50 at rat EP4 receptor turned out to be 6.4 nM.

Take `COCCNC(=O)c1ccc2c(c1)OCC[C@]21C[C@H]1C(=O)Nc1cc(C#N)ccc1CCCC(=O)O` [Example 28-2, 4-{4-Cyano-2-[({(2′R,4S)-7-[(2-methoxyethyl)carbamoyl]-2,3-dihydrospiro[chromene-4,1′-cyclopropan]-2′-yl}carbonyl)amino]phenyl}butanoic acid]: the “Remaining rate (%)” value in data set [1] was found to be 100%. This compound had a half-maximal inhibitory concentration (IC50) against rat EP4 receptor of 6.9 nM.

With `CNC(=O)c1cc2c(cc1OC)OCC[C@]21C[C@H]1C(=O)Nc1cc(C#N)ccc1CCCC(=O)O` [Example 33-1, 4-[4-Cyano-2-({[(2′R,4S)-7-methoxy-6-(methylcarbamoyl)-2,3-dihydrospiro[chromene-4,1′-cyclopropan]-2′-yl]carbonyl}amino)phenyl]butanoic acid], the “Remaining rate (%)” value in data set [1] worked out at 98%. On rat EP4 receptor, this compound returned an IC50 of 10 nM.

Consider `COCCNC(=O)c1cc2c(cc1OC)OCC[C@]21C[C@H]1C(=O)Nc1cc(C#N)ccc1CCCC(=O)O` [Example 33-2, 4-{4-Cyano-2-[({(2′R,4S)-7-methoxy-6-[(2-methoxyethyl)carbamoyl]-2,3-dihydrospiro[chromene-4,1′-cyclopropan]-2′-yl}carbonyl)amino]phenyl}butanoic acid], for which, in data set [1], the “Remaining rate (%)” value is recorded as 100%. The compound also showed an IC50 at rat EP4 receptor of 8.4 nM.

As for `N#Cc1ccc(CCCC(=O)O)c(NC(=O)[C@@H]2C[C@]23COc2ccc(-c4cccnc4)cc23)c1` [Example 36, 4-[4-Cyano-2-({[(2′R,3S)-5-(3-pyridinyl)spiro[1-benzofuran-3,1′-cyclopropan]-2′-yl]carbony}amino)phenyl]butanoic acid], the “Remaining rate (%)” value in data set [1] is reported as 93%. This compound yielded an IC50 against rat EP4 receptor of 4.5 nM.

On to `CNC(=O)c1ccc2c(c1)[C@]1(CO2)C[C@H]1C(=O)Nc1cc(C#N)ccc1CCCC(=O)O` [Example 37-1, 4-[4-Cyano-2-({[(2′R,3S)-5-(methylcarbamoyl)spiro[1-benzofuran-3,1′-cyclopropan]-2′-yl]carbonyl}amino)phenyl]butanoic acid], for which, in data set [1], the “Remaining rate (%)” value worked out at 77%. The compound further gave an IC50 at rat EP4 receptor of 7.2 nM.

As for `COCCNC(=O)c1ccc2c(c1)[C@]1(CO2)C[C@H]1C(=O)Nc1cc(C#N)ccc1CCCC(=O)O` [Example 37-2, 4-{4-Cyano-2-[({(2′R,3S)-5-[(2-methoxyethyl)carbamoyl]spiro[1-benzofuran-3,1′-cyclopropan]-2′-yl}carbonyl)amino]phenyl}butanoic acid], in data set [1], the “Remaining rate (%)” value is on record as 87%. Further, the IC50 against rat EP4 receptor is 6.2 nM.

Regarding `COCCNC(=O)c1ccc2c(c1)[C@@]1(C[C@H]1C(=O)Nc1cc(C#N)ccc1CCCC(=O)O)CC2(C)C` [Example 38-1, 4-[4-Cyano-2-({[(1S,2R)-6′-[(2-methoxyethyl)carbamoyl]-3′,3′-dimethyl-2′,3′-dihydrospiro[cyclopropane-1, 1′-inden]-2-yl]carbonyl}amino)phenyl]butanoic acid], the “Remaining rate (%)” value in data set [1] amounted to 69%. In addition, at rat EP4 receptor, 5.4 nM corresponded to half-maximal inhibition (IC50).

For `CNC(=O)c1ccc2c(c1)[C@@]1(C[C@H]1C(=O)Nc1cc(C#N)ccc1CCCC(=O)O)CC2(C)C` [Example 38-2, 4-[4-Cyano-2-({[(1S,2R)-3′,3′-dimethyl-6′-(methylcarbamoyl)-2′,3′-dihydrospiro[cyclopropane-1, 1′-inden]-2-yl]carbonyl}amino)phenyl]butanoic acid], the “Remaining rate (%)” value in data set [1] was 89%. The compound also gave an IC50 against rat EP4 receptor of 4.3 nM.

`CC1(C)C[C@]2(C[C@H]2C(=O)Nc2cc(C#N)ccc2CCCC(=O)O)c2cc(-c3cccnc3)ccc21` [Example 39, 4-[4-Cyano-2-({[(1S,2R)-3′,3′-dimethyl-6′-(3-pyridinyl)-2′,3′-dihydrospiro[cyclopropane-1,1′-inden]-2-yl]carbonyl}amino)phenyl]butanoic acid]: the “Remaining rate (%)” value in data set [1] is listed as 78%. Moreover, the IC50 on rat EP4 receptor was 5.7 nM.
